According to ChEMBL document CHEMBL1201862, “PubChem BioAssay data set” (2004):
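All cell lines were grown in 96-well plates and treated with compound for 48 hours. The concentration for 50% growth inhibition is given as GI50.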 Calls of active or inactive are those of the source. Rule as the data show it: active = GI50 up to about 1.1 µM and inactive = higher.

Tests used:
Assay in all cases: NCI tumour cell line growth inhibition, 48 h
A549 = system: A549
HCC 2998 = system: HCC 2998
IGROV-1 = system: IGROV-1
K562 = system: K562
LOX IMVI = system: LOX IMVI
M14 = system: M14
M19-MEL = system: M19-MEL
NCI-H23 = system: NCI-H23
OVCAR-3 = system: OVCAR-3
OVCAR-8 = system: OVCAR-8
SF-268 = system: SF-268
SF-539 = system: SF-539
SNB-19 = system: SNB-19
TK-10 = system: TK-10
U-251 = system: U-251
UACC-62 = system: UACC-62
UO-31 = system: UO-31
MDA-N = system: MDA-N
SNB-75 = system: SNB-75
SR = system: SR

Compound	GI50 (A549)	GI50 (HCC 2998)	GI50 (IGROV-1)	GI50 (K562)	GI50 (LOX IMVI)	GI50 (M14)	GI50 (M19-MEL)	GI50 (NCI-H23)	GI50 (OVCAR-3)	GI50 (OVCAR-8)	GI50 (SF-268)	GI50 (SF-539)	GI50 (SNB-19)	GI50 (TK-10)	GI50 (U-251)	GI50 (UACC-62)	GI50 (UO-31)	GI50 (MDA-N)	GI50 (SNB-75)	GI50 (SR)
CCOC(=O)C(=O)Nc1ccccc1OCC	> 100 µM (inactive)	> 100 µM (inactive)	> 100 µM (inactive)	> 100 µM (inactive)	> 100 µM (inactive)	> 100 µM (inactive)	> 100 µM (inactive)	> 100 µM (inactive)	> 100 µM (inactive)	> 100 µM (inactive)	> 100 µM (inactive)	> 100 µM (inactive)	> 100 µM (inactive)	> 100 µM (inactive)	> 100 µM (inactive)	> 100 µM (inactive)	92.9 µM (inactive)			
Cc1cc(S(=O)(=O)Nc2nnc3cc(C(F)(F)F)cc(C)n23)c(S)cc1Cl	21.3 µM (inactive)	33.7 µM (inactive)	> 100 µM (inactive)	> 100 µM (inactive)	> 100 µM (inactive)	77.3 µM (inactive)		> 100 µM (inactive)	64.1 µM (inactive)	> 100 µM (inactive)	> 100 µM (inactive)	34.4 µM (inactive)	27.5 µM (inactive)	> 100 µM (inactive)	29 µM (inactive)	56.4 µM (inactive)	39.1 µM (inactive)	> 100 µM (inactive)	> 71.1 µM (inactive)	> 100 µM (inactive)
Clc1cc(OCC23CC4CC(CC(C4)C2)C3)nc(OCC23CC4CC(CC(C4)C2)C3)n1	> 100 µM (inactive)	> 100 µM (inactive)	> 100 µM (inactive)	> 100 µM (inactive)	> 100 µM (inactive)	> 100 µM (inactive)		> 100 µM (inactive)	> 100 µM (inactive)	> 100 µM (inactive)	> 100 µM (inactive)	> 100 µM (inactive)	> 100 µM (inactive)	> 100 µM (inactive)	> 100 µM (inactive)	> 100 µM (inactive)	> 100 µM (inactive)	> 100 µM (inactive)	> 100 µM (inactive)	> 100 µM (inactive)
C=CCn1c(=O)c2ccccc2[n+]2c(-c3cccc([N+](=O)[O-])c3)csc12	42.2 µM (inactive)	> 100 µM (inactive)	50.5 µM (inactive)	28.4 µM (inactive)	56.8 µM (inactive)	62.7 µM (inactive)		54.5 µM (inactive)	33.9 µM (inactive)	34.8 µM (inactive)	48.9 µM (inactive)	96.8 µM (inactive)	> 100 µM (inactive)	38.4 µM (inactive)	77.4 µM (inactive)	31.6 µM (inactive)	28.6 µM (inactive)	66.2 µM (inactive)	17.5 µM (inactive)	17 µM (inactive)
CCC(C)C(=O)OCC(=O)c1ccc(-c2ccccc2)cc1 (stereo unspecified)	44.1 µM (inactive)	> 100 µM (inactive)	> 100 µM (inactive)	41 µM (inactive)	34.7 µM (inactive)	89.7 µM (inactive)		63.7 µM (inactive)	37.8 µM (inactive)	79.3 µM (inactive)	41.4 µM (inactive)	> 100 µM (inactive)	80.7 µM (inactive)	66.4 µM (inactive)	50.5 µM (inactive)	79.3 µM (inactive)	> 100 µM (inactive)	45.7 µM (inactive)	80.7 µM (inactive)	31.6 µM (inactive)
Cc1cc(=O)n2c3c(c4c(cc13)c(CN(C)C)cc(=O)n4C)OC2	10 µM (inactive)	6.93 µM (inactive)	9.51 µM (inactive)	29.8 µM (inactive)	13.2 µM (inactive)	15.6 µM (inactive)		14 µM (inactive)	18.6 µM (inactive)	9.1 µM (inactive)	15.5 µM (inactive)	7.18 µM (inactive)	15.8 µM (inactive)	19.6 µM (inactive)	32.4 µM (inactive)	12.6 µM (inactive)	8.04 µM (inactive)	27.8 µM (inactive)	14.7 µM (inactive)	> 25.6 µM (inactive)
C[C@]12CCC(=O)C=C1CC[C@@H]1C2CC[C@]2(C)Nc3c(cnn3-c3ccccc3)CC12 (stereo partly specified)	> 100 µM (inactive)	> 100 µM (inactive)	> 100 µM (inactive)	> 100 µM (inactive)		> 100 µM (inactive)	> 100 µM (inactive)	> 100 µM (inactive)	> 10 µM (inactive)	> 100 µM (inactive)		> 100 µM (inactive)		> 100 µM (inactive)	> 100 µM (inactive)	> 100 µM (inactive)	> 100 µM (inactive)		39.1 µM (inactive)	
COc1cc(C2c3cc4c(cc3OC(NN)C2C)OCO4)cc(OC)c1OC (stereo unspecified)	1.58 µM (inactive)	0.536 µM (active)	1.46 µM (inactive)	0.333 µM (active)	0.458 µM (active)	0.483 µM (active)		1.11 µM (active)	0.265 µM (active)	1.93 µM (inactive)	2.5 µM (inactive)	0.247 µM (active)	0.813 µM (active)	28.3 µM (inactive)	0.403 µM (active)	0.495 µM (active)	6.85 µM (inactive)	0.123 µM (active)	0.289 µM (active)	0.287 µM (active)
